Structures can show the parent of a compound that is named as a salt.
Experiments:
Format in all cases: cell-based
[1] = system: HCT116 FOP control reporter cell line; assay: HCT116 FOP control vector reporter assay (non-functional TCF elements); details: Homo sapiens, HCT-116, 36 h, HCT116 FOP control reporter cells, luciferase expression, 36 hours incubation, 50 μM to 15 nM; read-out: HCT116 FOPFlash IC50
Summary of the method: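 Stable HCT116 line carrying the non-functional FOP luciferase construct, 10000 cells/well plated 24 hrs before. Compounds 50 μM to 15 nM (3.16-fold steps) in CAFTY buffer pH 7.4 with 2 mM Ca2+, 36 hours at 37° C; luciferase luminescence read.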

[2] = system: constitutive active colorectal cancer cell (CRC) Wnt pathway; assay: HCT116 Super TopFlash cellular reporter assay (constitutive active Wnt pathway); details: HCT116 TOP reporter cells, luciferase expression, 36 hours incubation, 50 μM to 15 nM
Summary of the method: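 Luciferase luminescence served as the Wnt read-out after 36 h of compound treatment at 37 °C. Compound came from a pre-dilution series (50 μM down to 15 nM, 3.16-fold steps) in CAFTY buffer. Cells were stable HCT116 TOP reporter cells, with matched FOP-vector control cells tested in parallel, seeded a day earlier.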

[3] = system: HEK293 FOP control reporter cell line; assay: HEK293 FOP control vector reporter assay; details: Homo sapiens; HEK293 FOP control reporter cells, EC50 concentration of recombinant Wnt-3a, 16 hours incubation; read-out: HEK FOP IC50
Procedure: (§1) In order to determine the inhibitory activity of compounds for the WT Wnt signaling pathway, the Super TopFlash vector respectively FOP vector were cotransfected with pcDNA3 into HEK293 and stable transfected HEK293 cells were isolated by antibiotic selection. […] The recombinant human Wnt-3a was thereby used between 2500 and 5 ng/ml in two-fold dilution steps. […] Measurement of luciferase expression was done as described for the constitutive active Wnt assay.
In a parallel approach, HEK293 cells were cotransfected with the FOP control vector and pcDNA3. The FOP vector is identical to the TOP construct, but it contains instead of functional TCF elements a randomized, non-functional sequence. For this transfection a stable transfected cell line was generated as well, based on selection with Geneticin (1 mg/ml).
(§2) In preparation of the assay, the two cell lines were plated 24 hours before beginning the test at 10000 cells per well in a 384 micro titre plate (MTP) in […] growth medium. […] The recombinant human Wnt-3a was thereby applied between 2500 and 5 ng/ml in two-fold dilution steps. Selective inhibitory activity for small molecules on the wildtype Wnt pathway was determined after parallel incubation of both (TOP and FOP) HEK293 reporter cell lines with a compound dilution series from 50 μM to 15 nM in steps of 3.16-fold dilutions in CAFTY buffer (130 mM NaCl, 5 mM KCl, 20 mM HEPES, 1 mM MgCl2, 5 mM NaHCO3, pH 7.4) containing 2 mM Ca^2+ and 0.01% BSA.
(§3) The compounds were thereby serially prediluted in 100% DMSO and thereafter 50 fold into the CAFTY compound dilution buffer (described above).

wildtype Wnt pathway = assay: HEK293 Super TopFlash cellular reporter assay, Wnt-3a stimulated (wildtype Wnt pathway); details: Homo sapiens; HEK293 TOP reporter cells, EC50 concentration of recombinant Wnt-3a, 16 hours incubation; read-out: HEK TOP OncoFlash IC50
Procedure: as §1
In order to discover and characterize small molecules which inhibit the wildtype Wnt pathway, a cellular reporter assay was employed. The corresponding assay cell was generated by transfection of the mammalian cell line HEK293 (ATCC, #CRL-1573) with the Super TopFlash vector (Morin, Science 275, 1997, 1787-1790; Molenaar et al., Cell 86 (3), 1996, 391-399). The HEK293 cell line is cultivated at 37° C. and 5% CO2 in DMEM (Life Technologies, #41965-039), supplemented with 2 mM glutamine, 20 mM HEPES, 1.4 mM pyruvate, 0.15% Na-bicarbonate and 10% foetal bovine serum (GIBCO, #10270). Stable transfectants were generated by selection with 300 μg/ml Hygromycin.
as §2, §3

IC50 [1]	IC50 ([2]; Homo sapiens, HCT-116, 36 h)	IC50 (wildtype Wnt pathway)	IC50 [2]	Compound	IC50 [3]
≥ 50 µM	87 nM	610 nM	–	COCCOCc1ccc(C(=O)Nc2ccc(-c3ccccc3)cc2)cc1NC(=O)CN1CCOCC1 [Example 86, N-(biphenyl-4-yl)-4-[(2-methoxyethoxy)methyl]-3-[(morpholin-4-ylacetyl)amino]benzamide]	≥ 50 µM
≥ 50 µM	10.9 nM	5.09 nM	–	O=C(Nc1ccc(-c2ccccc2)cc1)c1ccc(OC(F)(F)F)c(NC(=O)C2(N3CCOCC3)CC2)c1 [Example 94, N-(biphenyl-4-yl)-3-({[1-(morpholin-4-yl)cyclopropyl]carbonyl}amino)-4-(trifluoromethoxy)benzamide]	7.6 µM
20.8 µM	–	90 nM	24.8 nM	COc1ccc(C(=O)Nc2ccc(-c3ccccc3)cc2)cc1NC(=O)C1(N2CCN(C)CC2)CC1 [Example 100, N-(biphenyl-4-yl)-4-methoxy-3-({[1-(4-methylpiperazin-1-yl)cyclopropyl]carbonyl}amino)benzamide hydrochloride (1:1)]	19 µM
≥ 50 µM	48.8 nM	280 nM	–	CSc1ccc(C(=O)Nc2ccc(-c3ccccc3)cc2)cc1NC(=O)CN1CCOCC1 [Example 109, N-(biphenyl-4-yl)-4-(methylsulfanyl)-3-[(morpholin-4-ylacetyl)amino]benzamide]	≥ 50 µM
≥ 50 µM	2250 nM	2500 nM	–	COc1ccc(NC(=O)c2ccc(-c3cccc(C)c3)cc2)cc1NC(=O)CN1CCOCC1 [Example 71, N-{4-methoxy-3-[(morpholin-4-ylacetyl)amino]phenyl}-3′-methylbiphenyl-4-carboxamide]	25 µM
≥ 50 µM	3750 nM	1300 nM	–	COc1ccc(NC(=O)c2ccc(-c3cccc(C#N)c3)cc2)cc1NC(=O)CN1CCOCC1 [Example 72, 3′-cyano-N-{4-methoxy-3-[(morpholin-4-ylacetyl)amino]phenyl}biphenyl-4-carboxamide]	≥ 50 µM
≥ 50 µM	32 nM	38 nM	–	O=C(CN1CCOCC1)Nc1cc(C(=O)Nc2ccc(-c3ccccc3)cc2)ccc1OC(F)(F)F [Example 23, N-(biphenyl-4-yl)-3-[(morpholin-4-ylacetyl)amino]-4-(trifluoromethoxy)benzamide]	≥ 50 µM
≥ 50 µM	58.7 nM	690 nM	–	N#Cc1ccc(C(=O)Nc2ccc(-c3ccccc3)cc2)cc1NC(=O)CN1CCOCC1 [Example 18, N-(biphenyl-4-yl)-4-cyano-3-[(morpholin-4-ylacetyl)amino]benzamide]	19 µM
≥ 50 µM	1180 nM	920 nM	–	COc1ccc(NC(=O)c2ccc(-c3ccccc3)cc2)cc1NC(=O)CN1CCN(C2CC2)CC1 [Example 35, N-(3-{[(4-cyclopropylpiperazin-1-yl)acetyl]amino}-4-methoxyphenyl)biphenyl-4-carboxamide]	29 µM
≥ 50 µM	99.7 nM	830 nM	–	CCOc1ccc(NC(=O)c2ccc(-c3ccccc3)cc2)cc1NC(=O)CN1CCOCC1 [Example 85, N-{4-ethoxy-3-[(morpholin-4-ylacetyl)amino]phenyl}biphenyl-4-carboxamide]	≥ 50 µM
≥ 50 µM	1790 nM	2400 nM	–	COc1ccc(NC(=O)c2ccc(-c3ccccc3)cc2)cc1NC(=O)C(C)(C)N1CCOCC1 [Example 28, N-(4-methoxy-3-{[2-methyl-2-(morpholin-4-yl)propanoyl]amino}phenyl)biphenyl-4-carboxamide]	≥ 50 µM
≥ 50 µM	1550 nM	820 nM	–	COc1ccc(NC(=O)c2ccc(-c3ccccc3)cc2)cc1NC(=O)CN1CCCOCC1 [Example 36, N-{4-methoxy-3-[(1,4-oxazepan-4-ylacetyl)amino]phenyl}biphenyl-4-carboxamide]	9.9 µM
28.9 µM	45.9 nM	41 nM	–	CCNC(=O)c1ccc(C(=O)Nc2ccc(-c3ccccc3)cc2)cc1NC(=O)CN1CCOCC1 [Example 102, N^4-(biphenyl-4-yl)-N^1-ethyl-2-[(morpholin-4-ylacetyl)amino]terephthalamide]	5.8 µM
27.4 µM	50 nM	20.6 nM	–	CC(=O)NCCCOc1ccc(C(=O)Nc2ccc(-c3ccccc3)cc2)cc1NC(=O)C1(N2CCOCC2)CC1 [Example 90, 4-(3-acetamidopropoxy)-N-(biphenyl-4-yl)-3-({[1-(morpholin-4-yl)cyclopropyl]carbonyl}amino)benzamide]	6.1 µM
23 µM	1200 nM	700 nM	–	COc1ccc(NC(=O)c2ccc(-c3ccccc3)cc2)cc1NC(=O)Cn1cccn1 [Example 27, N-{4-methoxy-3-[(1H-pyrazol-1-ylacetyl)amino]phenyl}biphenyl-4-carboxamide]	9.3 µM
8.25 µM	34.5 nM	40 nM	–	COCc1ccc(C(=O)Nc2ccc(-c3ccccc3)cc2)cc1NC(=O)C1(N2CCN(C)CC2)CC1 [Example 96, N-(biphenyl-4-yl)-4-(methoxymethyl)-3-({[1-(4-methylpiperazin-1-yl)cyclopropyl]carbonyl}amino)benzamide hydrochloride (1:1)]	9.6 µM
≥ 50 µM	40 nM	120 nM	–	O=C(CN1CCOCC1)Nc1cc(C(=O)Nc2ccc(-c3ccccc3)cc2)ccc1C(F)(F)F [Example 9, N-(biphenyl-4-yl)-3-[(morpholin-4-ylacetyl)amino]-4-(trifluoromethyl)benzamide]	≥ 50 µM
≥ 50 µM	7.24 nM	86 nM	–	O=C(Nc1ccc(-c2ccccc2)cc1)c1ccc(C(F)(F)F)c(NC(=O)C2(N3CCOCC3)CC2)c1 [Example 98, N-(biphenyl-4-yl)-3-({[1-(morpholin-4-yl)cyclopropyl]carbonyl}amino)-4-(trifluoromethyl)benzamide]	≥ 50 µM
≥ 50 µM	70 nM	270 nM	–	COc1ccc(C(=O)Nc2ccc(-c3ccccc3)cc2)cc1NC(=O)CN1CC2CCC(C1)O2 [Example 8, N-(biphenyl-4-yl)-4-methoxy-3-[(8-oxa-3-azabicyclo[3.2.1]oct-3-ylacetyl)amino]benzamide]	≥ 50 µM
21 µM	15.8 nM	36 nM	–	CN1CCN(C2(C(=O)Nc3cc(C(=O)Nc4ccc(-c5ccccc5)cc4)ccc3OC3CC3)CC2)CC1 [Example 114, N-(biphenyl-4-yl)-4-(cyclopropyloxy)-3-({[1-(4-methylpiperazin-1-yl)cyclopropyl]carbonyl}amino)benzamide]	≥ 50 µM
≥ 50 µM	39.2 nM	1600 nM	–	O=C(CN1CCOCC1)Nc1cc(NC(=O)c2ccc(-c3ccccc3)cc2)ccc1OC(F)(F)F [Example 66, N-{3-[(morpholin-4-ylacetyl)amino]-4-(trifluoromethoxy)phenyl}biphenyl-4-carboxamide]	≥ 50 µM

— patent publication US20160052898A1, “NOVEL COMPOUNDS” (BAYER PHARMA AKTIENGESELLSCHAFT, priority 2013, published 2016)
